Experimental data published in patent EP1764134B1, “Purine derivatives linked to arylpiperazines” (Spectrum Pharmaceuticals, Inc., priority 2001, dated 2003).

Tests used:
[1] = tested on: mice; assay: Conditioned avoidance testing (CAR, active avoidance); assay type: in vivo; details: S.C. 20 minutes before the test session
Description: Training: Consists of 20 trials with variable inter-trial intervals (Trained to 80% Avoidance Criteria). After a one-minute acclimation period, the house light and an acoustic 90dB tone (conditioned stimuli) are presented. A response (crossing to dark compartment) within 5 seconds ends the trial and trial is recorded as avoidance response (CAR). […] To avoid shock, animals learn to move from the lighted side of the chamber to the dark side when the cue is presented (avoidance) or moved when the shock is administered (escape).Testing: Vehicle or test compounds are administered S.C. 20 minutes before the test session. (Checking for disruption of cognition and attention) Table 3. Conditioned Avoidance Responding

[2] = tested on: Caco-2 cells
Description: Caco-2 cells were used to evaluate the membrane permeability of eight embodiments of the present invention. Monolayers were grown to confluence and the integrity checked by transepithelial electrical resistance (TEER) and permeability of Lucifer Yellow. The expression of P-glycoprotein was confirmed by measuring the permeability of digoxin alone and in the presence of verapamil. Permeability measurements were taken for each compound in the apical to basolateral (AP-BL) direction, and the basolateral to apical (BL-AP) direction.

[3] = tested on: male C-57 mice; assay: Pre-pulse inhibition testing: reversal of PCP disruption of pre-pulse inhibition of acoustic startle; assay type: in vivo; details: route not given (method: PO or SC); 20 minutes prior to PCP 5mg/kg IP

For `Cc1nc2n(c(=O)c1CCN1CCC(c3noc4cc(F)ccc34)CC1)CCCC2` [Risperidone, risperidone, reference compound], the “Conditioned Avoidance Responding: effect on avoidance (in words)” value [1] was “Significant reduction in avoidance” and the “Conditioned Avoidance Responding: effect on latency (in words)” value [1] was “Significant increase in latency”.
With `COc1ccccc1N1CCN(CCCn2ccc3c2CCCC3=O)CC1` [NEO-370, 1-{3-[4-(2-Methoxyphenyl)piperazine-1-yl]propyl}-1,5,6,7-tetrahydroindol-4-one] the “Conditioned Avoidance Responding: effect on avoidance (in words)” value [1] was “Significant reduction in avoidance”, the “Conditioned Avoidance Responding: effect on latency (in words)” value [1] was “Significant increase in latency” and the PERMEABILITY [2] was “High”.
With `COc1ccccc1N1CCN(CCn2ccc3c2CCCC3=O)CC1` [NEO-377, 1-{2-[4-(2-Methoxyphenyl)-piperazin-1-yl]-ethyl}-1,5,6,7-tetrahydro-indol-4-one] the “Conditioned Avoidance Responding: effect on avoidance (in words)” value [1] was “Significant reduction in avoidance”, the “Conditioned Avoidance Responding: effect on latency (in words)” value [1] was “Significant increase in latency” and the PERMEABILITY [2] was “High”.
With `O=C1CCCc2c1ccn2CCCN1CCN(c2cccc(Cl)c2)CC1` [NEO-363, 1-{3-[4-(3-Chlorophenyl)piperazine-1-yl]propyl}-1,5,6,7-tetrahydroindol-4-one] the “Conditioned Avoidance Responding (overall effect / effect on escape or avoidance, in words)” value [1] was “No effect” and the PERMEABILITY [2] was “High”.
For `O=C1CCCc2c1ccn2CCN1CCN(c2cccc(C(F)(F)F)c2)CC1` [NEO-359, 1-{2-[4-(3-Trifluoromethylphenyl)piperazin-1-yl]ethyl}-1,5,6,7-tetrahydroindol-4-one], the “PCP Disruption of Pre-pulse Inhibition (result in words)” value (shortened to “PCP Disruption of Pre-pulse Inhibition”) [3] was “No reversal”, the “Conditioned Avoidance Responding (overall effect / effect on escape or avoidance, in words)” value [1] was “No effect on escape or avoidance” and the “Conditioned Avoidance Responding: effect on latency (in words)” value [1] was “Significant decrease in latency”. For the same compound, the PERMEABILITY [2] was “High”.
`O=C1CCCc2c1ccn2CCCN1CCN(c2ncccn2)CC1` [NEO-381, 1-{3-[4-(2-Pyrimidyl)piperazine-1-yl]propyl}-1,5,6,7-tetrahydroindol-4-one] was tested, and the “PCP Disruption of Pre-pulse Inhibition” value [3] was “No reversal”, the “Conditioned Avoidance Responding (overall effect / effect on escape or avoidance, in words)” value [1] was “No effect” and the PERMEABILITY [2] was “High”.
For `CC(C)NCC(O)COc1cccc2ccccc12` (stereo not drawn) [Propranolol, reference compound], the PERMEABILITY [2] was “High”.
For `O=C1CCCc2c1ccn2CCCN1CCN(c2cccc(C(F)(F)F)c2)CC1` [NEO-356, 1-{3-[4-(3-Trifluoromethylphenyl)piperazin-1-yl]propyl}-1,5,6,7-tetrahydroindo1-4-one], the “PCP Disruption of Pre-pulse Inhibition” value [3] was “No reversal”, the “Conditioned Avoidance Responding (overall effect / effect on escape or avoidance, in words)” value [1] was “No effect” and the PERMEABILITY [2] was “High”.
With `O=C1CCCc2c1ccn2CCN1CCN(c2cccc(Cl)c2)CC1` [NEO-376, 1-{2-[4-(3-Chloro-phenyl)-piperazin-1-yl]-ethyl}-1,5,6,7-tetrahydro-indol-4-one] the “Conditioned Avoidance Responding (overall effect / effect on escape or avoidance, in words)” value [1] was “No effect on escape or avoidance”, the “Conditioned Avoidance Responding: effect on latency (in words)” value [1] was “significant increase in latency” and the PERMEABILITY [2] was “High”.
For `O=C1CCCc2c1ccn2CCCCN1CCN(c2cccc(C(F)(F)F)c2)CC1` [NEO-392, 1-{4-[4-(3-Trifluoromethylphenyl)piperazin-1-yl]butyl}-1,5,6,7-tetrahydroindol-4-one], the “Conditioned Avoidance Responding: effect on avoidance (in words)” value [1] was “Significant reduction in avoidance”, the “Conditioned Avoidance Responding: effect on latency (in words)” value [1] was “Significant increase in latency” and the PERMEABILITY [2] was “High”.
